Laboratory results as given in PubChem BioAssay (NCI).
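Exposure lasted 48 hours, with cells grown in 96-well plates and compounds tested at five concentrations. TGI: total growth inhibition.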

Legend:
Experiment in all cases: NCI tumour cell line growth inhibition, 48 h
786-0 renal = tested on: 786-0 renal
A498 renal = tested on: A498 renal
A549 NSCLC = tested on: A549 NSCLC
ACHN renal = tested on: ACHN renal
BT-549 breast = tested on: BT-549 breast
CAKI-1 renal = tested on: CAKI-1 renal
CCRF-CEM leukemia = tested on: CCRF-CEM leukemia
COLO 205 colon = tested on: COLO 205 colon
DU-145 prostate = tested on: DU-145 prostate
EKVX NSCLC = tested on: EKVX NSCLC
HCC-2998 colon = tested on: HCC-2998 colon
HCT-116 colon = tested on: HCT-116 colon
HCT-15 colon = tested on: HCT-15 colon
HL-60(TB) leukemia = tested on: HL-60(TB) leukemia
HOP-62 NSCLC = tested on: HOP-62 NSCLC
HOP-92 NSCLC = tested on: HOP-92 NSCLC
HS 578T breast = tested on: HS 578T breast
HT29 colon = tested on: HT29 colon
IGROV1 ovarian = tested on: IGROV1 ovarian
K-562 leukemia = tested on: K-562 leukemia
KM12 colon = tested on: KM12 colon
LOX IMVI melanoma = tested on: LOX IMVI melanoma
M14 melanoma = tested on: M14 melanoma
MALME-3M melanoma = tested on: MALME-3M melanoma
MDA-MB-231 breast = tested on: MDA-MB-231 breast
MDA-MB-435 = tested on: MDA-MB-435
MDA-N = tested on: MDA-N
MOLT-4 leukemia = tested on: MOLT-4 leukemia
NCI-H226 lung = tested on: NCI-H226 lung
NCI-H23 lung = tested on: NCI-H23 lung
NCI-H460 lung = tested on: NCI-H460 lung
NCI-H522 lung = tested on: NCI-H522 lung
NCI/ADR-RES ovarian = tested on: NCI/ADR-RES ovarian
OVCAR-3 ovarian = tested on: OVCAR-3 ovarian
OVCAR-4 ovarian = tested on: OVCAR-4 ovarian
OVCAR-5 ovarian = tested on: OVCAR-5 ovarian
OVCAR-8 ovarian = tested on: OVCAR-8 ovarian
PC-3 prostate = tested on: PC-3 prostate
RPMI-8226 leukemia = tested on: RPMI-8226 leukemia
RXF 393 renal = tested on: RXF 393 renal
SF-268 CNS = tested on: SF-268 CNS
SF-295 CNS = tested on: SF-295 CNS
SF-539 CNS = tested on: SF-539 CNS
SK-MEL-2 melanoma = tested on: SK-MEL-2 melanoma
SK-MEL-28 melanoma = tested on: SK-MEL-28 melanoma
SK-MEL-5 melanoma = tested on: SK-MEL-5 melanoma
SK-OV-3 ovarian = tested on: SK-OV-3 ovarian
SN12C renal = tested on: SN12C renal
SNB-19 CNS = tested on: SNB-19 CNS
SNB-75 CNS = tested on: SNB-75 CNS
SR leukemia = tested on: SR leukemia
SW-620 colon = tested on: SW-620 colon
T-47D breast = tested on: T-47D breast
TK-10 renal = tested on: TK-10 renal
U251 CNS = tested on: U251 CNS
UACC-257 melanoma = tested on: UACC-257 melanoma
UACC-62 melanoma = tested on: UACC-62 melanoma
UO-31 renal = tested on: UO-31 renal
MCF7 breast = tested on: MCF7 breast

Measured: TGI

C[C@]12CC[C@H](O[C@@H]3O[C@H](CO[C@@H]4O[C@H](CO)[C@@H](O)[C@H](O)[C@H]4O)[C@@H](O)[C@H](O)[C@H]3O)C[C@@H]1CC[C@@H]1[C@@H]2CC[C@]2(C)[C@@H](C3=CC(=O)OC3)CC[C@]12O
70 µM: A498 renal
> 74.1 µM: OVCAR-3 ovarian
> 95.8 µM: NCI-H226 lung
> 58.9 µM: CAKI-1 renal
34.9 µM: HCT-116 colon
> 87.9 µM: RPMI-8226 leukemia
56.3 µM: IGROV1 ovarian
> 89.1 µM: HOP-92 NSCLC
28.1 µM: NCI-H23 lung
57.8 µM: OVCAR-4 ovarian
39.3 µM: NCI/ADR-RES ovarian
54.9 µM: HL-60(TB) leukemia
38.1 µM: MALME-3M melanoma
> 94 µM: SK-MEL-2 melanoma
> 80.4 µM: UACC-62 melanoma
41.1 µM: RXF 393 renal
> 73.3 µM: UACC-257 melanoma
> 100 µM: 786-0 renal | ACHN renal | CCRF-CEM leukemia | HS 578T breast | HT29 colon | K-562 leukemia | KM12 colon | MDA-MB-231 breast | MDA-MB-435 | PC-3 prostate | SK-MEL-28 melanoma | SNB-19 CNS | SR leukemia | SW-620 colon | U251 CNS
29.5 µM: SF-268 CNS
> 72.6 µM: SK-OV-3 ovarian
93.5 µM: MDA-N
40.4 µM: EKVX NSCLC
51 µM: HCC-2998 colon
> 66.5 µM: UO-31 renal
> 76.9 µM: COLO 205 colon
> 84.7 µM: SNB-75 CNS
> 44.9 µM: NCI-H460 lung
> 95.7 µM: T-47D breast
> 76.6 µM: OVCAR-5 ovarian
> 51.6 µM: TK-10 renal
42.9 µM: HCT-15 colon
21.5 µM: BT-549 breast
15.9 µM: A549 NSCLC
46.7 µM: NCI-H522 lung
26.4 µM: DU-145 prostate
8.52 µM: SK-MEL-5 melanoma
> 31.6 µM: SF-295 CNS
33.2 µM: SF-539 CNS
62.9 µM: M14 melanoma
65.6 µM: LOX IMVI melanoma
> 41 µM: MOLT-4 leukemia
65.3 µM: SN12C renal
96.9 µM: OVCAR-8 ovarian
31.1 µM: HOP-62 NSCLC

CCOC(=O)[C@@H]1[C@@H](c2ccccc2)N(C)O[C@@]1(c1ccccc1)C(F)(F)F
> 100 µM: 786-0 renal | A498 renal | A549 NSCLC | ACHN renal | BT-549 breast | CAKI-1 renal | COLO 205 colon | DU-145 prostate | EKVX NSCLC | HCT-116 colon | HCT-15 colon | HOP-62 NSCLC | HOP-92 NSCLC | HS 578T breast | HT29 colon | IGROV1 ovarian | KM12 colon | LOX IMVI melanoma | M14 melanoma | MALME-3M melanoma | MDA-MB-231 breast | MDA-MB-435 | MDA-N | NCI-H226 lung | NCI-H23 lung | NCI-H522 lung | NCI/ADR-RES ovarian | OVCAR-3 ovarian | OVCAR-4 ovarian | OVCAR-5 ovarian | OVCAR-8 ovarian | PC-3 prostate | RPMI-8226 leukemia | RXF 393 renal | SF-268 CNS | SF-295 CNS | SK-MEL-2 melanoma | SK-MEL-28 melanoma | SK-OV-3 ovarian | SN12C renal | SNB-19 CNS | SNB-75 CNS | SW-620 colon | T-47D breast | TK-10 renal | U251 CNS | UACC-257 melanoma | UACC-62 melanoma | UO-31 renal
60.7 µM: CCRF-CEM leukemia
72.3 µM: SK-MEL-5 melanoma

O=c1[nH]c(=O)c2c([nH]1)[nH]c1ccc(Br)cc12
56.4 µM: SK-OV-3 ovarian
79.3 µM: KM12 colon
> 100 µM: 786-0 renal | A498 renal | A549 NSCLC | ACHN renal | BT-549 breast | CAKI-1 renal | CCRF-CEM leukemia | COLO 205 colon | DU-145 prostate | EKVX NSCLC | HCC-2998 colon | HCT-116 colon | HCT-15 colon | HL-60(TB) leukemia | HOP-62 NSCLC | HOP-92 NSCLC | HS 578T breast | HT29 colon | IGROV1 ovarian | LOX IMVI melanoma | M14 melanoma | MALME-3M melanoma | MCF7 breast | MDA-MB-231 breast | MDA-MB-435 | MDA-N | NCI-H226 lung | NCI-H23 lung | NCI-H522 lung | NCI/ADR-RES ovarian | OVCAR-5 ovarian | OVCAR-8 ovarian | RPMI-8226 leukemia | RXF 393 renal | SF-268 CNS | SF-295 CNS | SF-539 CNS | SK-MEL-2 melanoma | SK-MEL-5 melanoma | SN12C renal | SNB-19 CNS | SNB-75 CNS | SR leukemia | SW-620 colon | T-47D breast | TK-10 renal | UACC-257 melanoma | UACC-62 melanoma | UO-31 renal

Cc1ccc2[nH]c3c(c(=O)n(C)c(=O)n3C)c2c1
> 100 µM: 786-0 renal | A498 renal | A549 NSCLC | ACHN renal | BT-549 breast | CAKI-1 renal | CCRF-CEM leukemia | COLO 205 colon | DU-145 prostate | EKVX NSCLC | HCC-2998 colon | HCT-116 colon | HCT-15 colon | HL-60(TB) leukemia | HOP-62 NSCLC | HOP-92 NSCLC | HS 578T breast | HT29 colon | IGROV1 ovarian | K-562 leukemia | KM12 colon | LOX IMVI melanoma | M14 melanoma | MALME-3M melanoma | MCF7 breast | MDA-MB-231 breast | MDA-MB-435 | MDA-N | MOLT-4 leukemia | NCI-H226 lung | NCI-H23 lung | NCI-H522 lung | NCI/ADR-RES ovarian | OVCAR-4 ovarian | OVCAR-5 ovarian | OVCAR-8 ovarian | RPMI-8226 leukemia | SF-268 CNS | SF-295 CNS | SF-539 CNS | SK-MEL-2 melanoma | SK-MEL-5 melanoma | SK-OV-3 ovarian | SN12C renal | SNB-19 CNS | SNB-75 CNS | SR leukemia | SW-620 colon | T-47D breast | TK-10 renal | U251 CNS | UACC-257 melanoma | UACC-62 melanoma | UO-31 renal
